According to ChEMBL document CHEMBL1201862, “PubChem BioAssay data set” (2004):
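Compound exposure: 48 hours, 5 concentrations, 96-well plates. The concentration for 50% growth inhibition is given as GI50.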 Calls of active or inactive are those of the source. Rule as the data show it: active = GI50 up to about 1.1 µM and inactive = higher.

Columns and labels:
Experiment in all cases: growth of human tumour cells (NCI), 48 h
SK-OV-3 = test system: SK-OV-3
UACC-62 = test system: UACC-62
IGROV-1 = test system: IGROV-1
MDA-MB-435 = test system: MDA-MB-435
SK-MEL-28 = test system: SK-MEL-28
HOP-92 = test system: HOP-92
SF-295 = test system: SF-295
NCI-H226 = test system: NCI-H226
SK-MEL-5 = test system: SK-MEL-5
MDA-N = test system: MDA-N
SR = test system: SR
SNB-19 = test system: SNB-19
KM12 = test system: KM12
SN12C = test system: SN12C
NCI/ADR-RES = test system: NCI/ADR-RES
HCC 2998 = test system: HCC 2998
DU-145 = test system: DU-145
CCRF-CEM = test system: CCRF-CEM
K562 = test system: K562
BT-549 = test system: BT-549

SMILES	GI50 (SK-OV-3)	GI50 (UACC-62)	GI50 (IGROV-1)	GI50 (MDA-MB-435)	GI50 (SK-MEL-28)	GI50 (HOP-92)	GI50 (SF-295)	GI50 (NCI-H226)	GI50 (SK-MEL-5)	GI50 (MDA-N)	GI50 (SR)	GI50 (SNB-19)	GI50 (KM12)	GI50 (SN12C)	GI50 (NCI/ADR-RES)	GI50 (HCC 2998)	GI50 (DU-145)	GI50 (CCRF-CEM)	GI50 (K562)	GI50 (BT-549)
Cc1ccc2c(c1C)-c1c(ccc(C)c1C)C(=O)C2=O	2.15 µM (inactive)	0.356 µM (active)	0.357 µM (active)	0.21 µM (active)	0.92 µM (active)	0.374 µM (active)	0.59 µM (active)	1.66 µM (inactive)	0.367 µM (active)	0.173 µM (active)	0.107 µM (active)	0.881 µM (active)	0.165 µM (active)	0.817 µM (active)	0.151 µM (active)	3.7 µM (inactive)	1.14 µM (inactive)	0.238 µM (active)	0.266 µM (active)	0.335 µM (active)
Cc1nnc(N)nc1/C=C\c1ccc(Cl)cc1Cl	45.5 µM (inactive)	30.8 µM (inactive)	16.3 µM (inactive)	33.5 µM (inactive)	55.5 µM (inactive)	39.2 µM (inactive)	23.4 µM (inactive)	17.3 µM (inactive)	30.9 µM (inactive)	55.5 µM (inactive)	46.6 µM (inactive)	30.2 µM (inactive)	18.6 µM (inactive)	61.5 µM (inactive)	> 100 µM (inactive)	21.6 µM (inactive)	72.8 µM (inactive)	27.5 µM (inactive)	77.8 µM (inactive)	72.3 µM (inactive)
Cc1coc2c1CC1(C)C(CCC(O)C1C)C2 (stereo not drawn)	> 100 µM (inactive)	> 100 µM (inactive)	> 100 µM (inactive)	> 100 µM (inactive)	–	> 100 µM (inactive)	> 100 µM (inactive)	> 100 µM (inactive)	> 100 µM (inactive)	> 100 µM (inactive)	> 100 µM (inactive)	> 100 µM (inactive)	> 100 µM (inactive)	> 100 µM (inactive)	> 100 µM (inactive)	> 100 µM (inactive)	> 100 µM (inactive)	> 100 µM (inactive)	> 100 µM (inactive)	> 100 µM (inactive)
C[C@]12[C@@H]3CC[C@H]1[C@@H](OC(=O)Nc1cc([N+](=O)[O-])cc([N+](=O)[O-])c1)C(=O)N2CC3	> 100 µM (inactive)	> 100 µM (inactive)	> 100 µM (inactive)	> 100 µM (inactive)	> 100 µM (inactive)	> 100 µM (inactive)	> 100 µM (inactive)	> 100 µM (inactive)	> 100 µM (inactive)	> 100 µM (inactive)	> 100 µM (inactive)	> 100 µM (inactive)	> 100 µM (inactive)	> 100 µM (inactive)	> 100 µM (inactive)	> 100 µM (inactive)	> 100 µM (inactive)	> 100 µM (inactive)	> 100 µM (inactive)	> 100 µM (inactive)
CC(C)C1OC(=O)C(Cc2ccccc2)N(C)C(=O)C(C(C)C)OC(=O)C(Cc2ccccc2)N(C)C(=O)C(C(C)C)OC(=O)C(Cc2ccccc2)N(C)C1=O (stereo not drawn)	0.836 µM (active)	0.643 µM (active)	1.03 µM (active)	0.641 µM (active)	0.78 µM (active)	0.528 µM (active)	0.662 µM (active)	1.36 µM (inactive)	0.53 µM (active)	0.815 µM (active)	1.89 µM (inactive)	0.805 µM (active)	0.501 µM (active)	0.804 µM (active)	0.771 µM (active)	0.762 µM (active)	1.62 µM (inactive)	0.373 µM (active)	0.838 µM (active)	1.39 µM (inactive)
Cc1nc2ccc(S(=O)(=O)O)cc2c(=O)n1-c1ccc(C(=O)NN2C(=O)C(Cl)C2c2cccs2)cc1 (stereo not drawn)	> 100 µM (inactive)	> 100 µM (inactive)	–	27.5 µM (inactive)	> 100 µM (inactive)	> 100 µM (inactive)	> 100 µM (inactive)	> 100 µM (inactive)	> 100 µM (inactive)	26.1 µM (inactive)	> 100 µM (inactive)	> 100 µM (inactive)	> 100 µM (inactive)	> 100 µM (inactive)	> 100 µM (inactive)	> 100 µM (inactive)	> 100 µM (inactive)	63.1 µM (inactive)	> 100 µM (inactive)	> 100 µM (inactive)
O=C1NC(O)CCN1C1CC(O)C(CO)O1 (stereo not drawn)	> 100 µM (inactive)	> 100 µM (inactive)	> 100 µM (inactive)	> 100 µM (inactive)	> 100 µM (inactive)	> 100 µM (inactive)	> 100 µM (inactive)	> 100 µM (inactive)	> 100 µM (inactive)	> 100 µM (inactive)	> 100 µM (inactive)	> 100 µM (inactive)	74.1 µM (inactive)	> 100 µM (inactive)	> 100 µM (inactive)	> 100 µM (inactive)	> 100 µM (inactive)	> 100 µM (inactive)	> 100 µM (inactive)	> 100 µM (inactive)
c1ccc(CN2CCN3CCN(CC2)CCN(Cc2ccccc2)CC3)cc1	16.4 µM (inactive)	4.24 µM (inactive)	7.23 µM (inactive)	3.15 µM (inactive)	4.67 µM (inactive)	7.06 µM (inactive)	21.9 µM (inactive)	4.94 µM (inactive)	1.98 µM (inactive)	3.3 µM (inactive)	4.08 µM (inactive)	5.43 µM (inactive)	3.33 µM (inactive)	4.51 µM (inactive)	> 100 µM (inactive)	10.9 µM (inactive)	12.4 µM (inactive)	6.37 µM (inactive)	4 µM (inactive)	5.16 µM (inactive)
N#Cc1c(N2CCCC2)ncn(Cc2ccccc2)c1=S	> 100 µM (inactive)	68.7 µM (inactive)	> 87.9 µM (inactive)	> 100 µM (inactive)	> 100 µM (inactive)	22.4 µM (inactive)	94.6 µM (inactive)	> 96.2 µM (inactive)	> 100 µM (inactive)	> 100 µM (inactive)	> 100 µM (inactive)	58.5 µM (inactive)	> 100 µM (inactive)	> 100 µM (inactive)	65 µM (inactive)	> 100 µM (inactive)	86.3 µM (inactive)	> 100 µM (inactive)	> 100 µM (inactive)	> 100 µM (inactive)
COc1ccc(NC(C)=O)cc1N1C(=O)/C(=C\c2cc(OC)c(OC)c(OC)c2)SC1c1ccccc1 (stereo not drawn)	82.2 µM (inactive)	67.9 µM (inactive)	23.8 µM (inactive)	36 µM (inactive)	41.9 µM (inactive)	29.5 µM (inactive)	52 µM (inactive)	50.9 µM (inactive)	33.7 µM (inactive)	25.5 µM (inactive)	27.8 µM (inactive)	83.4 µM (inactive)	40.6 µM (inactive)	40.2 µM (inactive)	45.6 µM (inactive)	> 100 µM (inactive)	91.4 µM (inactive)	37 µM (inactive)	30.9 µM (inactive)	97.5 µM (inactive)
COC1CC(N)C(O)C(C)O1 (stereo not drawn)	> 100 µM (inactive)	> 100 µM (inactive)	> 100 µM (inactive)	> 100 µM (inactive)	> 100 µM (inactive)	> 100 µM (inactive)	> 100 µM (inactive)	> 100 µM (inactive)	> 100 µM (inactive)	> 100 µM (inactive)	> 100 µM (inactive)	> 100 µM (inactive)	> 100 µM (inactive)	> 100 µM (inactive)	> 100 µM (inactive)	> 100 µM (inactive)	> 100 µM (inactive)	> 100 µM (inactive)	> 100 µM (inactive)	> 100 µM (inactive)
COc1cc(C2c3cc4c(cc3[C@@H](Nc3ccc(N)cc3)C3COC(=O)[C@H]23)OCO4)cc(OC)c1O (stereo partly drawn)	1.51 µM (inactive)	1.15 µM (inactive)	3.35 µM (inactive)	10.8 µM (inactive)	6.76 µM (inactive)	0.948 µM (active)	0.403 µM (active)	1.19 µM (inactive)	0.918 µM (active)	3.93 µM (inactive)	0.205 µM (active)	0.805 µM (active)	3.43 µM (inactive)	0.711 µM (active)	3.75 µM (inactive)	3.27 µM (inactive)	0.121 µM (active)	0.222 µM (active)	3.13 µM (inactive)	2.5 µM (inactive)
CN(C)CCOC1(CC2CCCCC2)CCC(C(C)(C)C)CC1 (stereo not drawn)	11.6 µM (inactive)	7.8 µM (inactive)	8.71 µM (inactive)	4.74 µM (inactive)	4.68 µM (inactive)	5.73 µM (inactive)	4.32 µM (inactive)	6.84 µM (inactive)	2.3 µM (inactive)	4.25 µM (inactive)	1.69 µM (inactive)	8.43 µM (inactive)	4.27 µM (inactive)	6.46 µM (inactive)	9.62 µM (inactive)	4.38 µM (inactive)	7.01 µM (inactive)	2 µM (inactive)	2.04 µM (inactive)	6.19 µM (inactive)
CC1(C)CCC[C@](C)([C@H]2CC[C@]3(C)[C@@H]2[C@H](O)C[C@@H]2[C@@]4(C)CC[C@H](O)C(C)(C)[C@@H]4[C@H](O)C[C@]23C)O1	16.9 µM (inactive)	13.3 µM (inactive)	17.5 µM (inactive)	12.2 µM (inactive)	11.9 µM (inactive)	13.6 µM (inactive)	10.5 µM (inactive)	15.7 µM (inactive)	3.64 µM (inactive)	13.5 µM (inactive)	5.31 µM (inactive)	11.5 µM (inactive)	11.1 µM (inactive)	14.3 µM (inactive)	15.2 µM (inactive)	13.9 µM (inactive)	15.8 µM (inactive)	3.09 µM (inactive)	5.48 µM (inactive)	13.8 µM (inactive)
